Our source for the GI50 and TGI values is PubChem BioAssay (NCI).

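Five concentrations, 48 hours, 96-well plates. The concentration for 50% growth inhibition is given as GI50. TGI: concentration producing complete growth inhibition.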

Holding throughout (test): growth of human tumour cells (NCI), 48 h
Assay [1] relates to RPMI-8226 leukemia.
The subject of assay [2] is LOX IMVI melanoma.
In assay [3] the test system is U251 CNS.
In assay [4] the test system is NCI-H522 lung.
Assay [5] relates to SW-620 colon.
Assay [6] relates to SNB-19 CNS.
Assay [7] concerns COLO 205 colon.
Assay [8] relates to 786-0 renal.
Assay [9] has as its system M14 melanoma.
In assay [10] the test system is HT29 colon.

Turning to `O=C(Nc1cccc(O)c1)c1ccc(NC2=C(Cl)C(=O)N(Cc3ccc(Cl)cc3Cl)C2=O)cc1`, the GI50 in assay [1] is 0.749 µM; in [2] it was 1.62 µM; in assay [3] it was 1.76 µM; in assay [4] it was 1.94 µM; in assay [5], 2.21 µM; in [6], 2.69 µM. Besides, the GI50 was 1.9 µM in assay [7], 7.2 µM in assay [8], 8.29 µM in assay [9] and 2.75 µM in [10]. Besides, the TGI in assay [1] came to 2.52 µM; in [2], 3.16 µM; in assay [3], 3.23 µM; in [4] it was 4.24 µM; in [5], 6.42 µM; in [6] it was 7.68 µM. Also, the TGI in assay [7] is 4.18 µM; in assay [8], more than 57 µM; in assay [9], more than 55.9 µM; in assay [10], more than 22.1 µM.
For `COc1ccc2c(c1)nc(C(=O)c1ccco1)c(C(F)(F)F)[n+]2[O-]`, the GI50 in [1], in [2], in [3], in assay [4], in assay [5] and in assay [6] was more than 100 µM each time. The GI50 was more than 100 µM in assay [7], 29.2 µM in assay [8], more than 100 µM in [9] and more than 100 µM in assay [10]. In addition, the TGI in assay [1], in assay [2], in assay [3], in assay [4], in assay [5] and in [6] was more than 100 µM each time. Further, the TGI in [7], in assay [8], in assay [9] and in [10] was more than 100 µM each time.
In the case of `Cc1ccccc1NC(=O)c1sc2nc(C)c(C(=O)/C=C/c3ccccc3)cc2c1N`, the GI50 was 1.2 µM in assay [1]; 0.864 µM in [2]; 0.951 µM in assay [3]; 1.15 µM in assay [4]; 1 µM in assay [5]; 1.16 µM in assay [6]. Moreover, the GI50 was 1.65 µM in assay [7], 0.82 µM in [8], 1.58 µM in assay [9] and 1.18 µM in assay [10]. In addition, the TGI in assay [1] was 3.48 µM; in assay [2], 1.62 µM; in [3], 1.99 µM; in assay [4] it was 3.42 µM; in assay [5], 2.45 µM; in assay [6], 3.58 µM. The TGI in assay [7] turned out to be 5.27 µM; in assay [8], 1.77 µM; in assay [9], 6.12 µM; in assay [10] it was 3.21 µM.
In the case of `Cc1ccc(S(=O)(=O)SC(C)(C)C)cc1`, the TGI in assay [1] is 46.4 µM; in [2] it was 60.1 µM; in assay [3], more than 100 µM; in [4] it was 32.3 µM; in assay [5], 47.9 µM; in assay [6], more than 100 µM. For the same compound, the TGI in assay [7] was more than 92.5 µM; in assay [8], 31.8 µM; in assay [9] it was more than 88.8 µM; in [10], 34.8 µM.
Turning to `NCCCC[C@@H]1NC(=O)[C@H](CC(=O)O)NC(=O)CNC(=O)[C@H](CCCN=C(N)N)NC(=O)[C@@H](N)CSSC[C@@H](C(=O)O)NC(=O)[C@H](CC(=O)O)NC(=O)[C@@H]2CCCN2C(=O)CNC1=O`, the GI50 in assay [1], in assay [2], in assay [3], in assay [4], in assay [5] and in [6] was more than 100 µM throughout. Further, the GI50 in assay [7], in assay [8], in [9] and in assay [10] was more than 100 µM throughout. In addition, the TGI in assay [1], in assay [2], in assay [3], in assay [4], in [5] and in assay [6] was more than 100 µM in each case. Besides, the TGI in assay [7], in assay [8], in [9] and in [10] was more than 100 µM throughout.
As to `CC1C(C)N(C(=O)CCl)c2ccccc2N1C(=O)CCl` (stereo not given), the GI50 in assay [1] was 0.21 µM; in [2] it was 0.235 µM; in assay [3] it was 0.755 µM; in [4] it was 0.162 µM; in [5], 0.209 µM; in assay [6], 2.16 µM. In addition, the GI50 was 0.399 µM in assay [7], 0.937 µM in assay [8], 0.597 µM in [9] and 0.225 µM in assay [10]. For the same compound, the TGI in assay [1] amounted to 0.649 µM; in assay [2], 0.729 µM; in assay [3] it was 2.14 µM; in assay [4] it was 0.347 µM; in assay [5] it was 0.485 µM; in assay [6] it was 5.4 µM. The TGI in [7] came out at 0.973 µM; in assay [8], 3.02 µM; in assay [9] it was 2.2 µM; in [10], 0.523 µM.
For the compound `COc1ccc2c(c1OC)CO[C@@H]2[C@H]1c2c(cc3c(c2OC)OCO3)CCN1S(=O)(=O)c1cn(C)cn1`, the GI50 was 2.48 µM in assay [1]; 4.48 µM in [2]; 2.24 µM in assay [3]; 0.427 µM in assay [4]; 1.2 µM in [5]; 1.76 µM in [6]. Also, the GI50 was 1.72 µM in [7], 0.968 µM in [8], 0.513 µM in assay [9] and 0.614 µM in [10]. In addition, the TGI in [1] was 30.2 µM; in assay [2] it was more than 100 µM; in assay [3], more than 100 µM; in assay [4], 8.32 µM; in [5], more than 100 µM; in assay [6], more than 100 µM. In addition, the TGI in assay [7] is 11.6 µM; in assay [8], more than 100 µM; in [9] it was more than 100 µM; in assay [10] it was more than 100 µM.
Turning to `CCOC(=O)Oc1cc2c(c(OC)c1OC)-c1ccc(OC)c(=O)cc1C(NC(C)=O)CC2` (stereo not given), the TGI in [1] was 70.6 µM; in assay [2], more than 100 µM; in assay [3], 8.56 µM; in assay [4] it was 0.0271 µM; in [5] it was more than 100 µM; in [6] it was 92.4 µM. For the same compound, the TGI was 0.135 µM in assay [7], more than 100 µM in assay [8], more than 70.6 µM in assay [9] and 13.2 µM in assay [10].
In the case of `O=C1CC(c2cccc(F)c2)Nc2cc3c(cc21)OCO3` (stereo not given), the TGI in assay [1] is 0.162 µM; in [2] it was more than 100 µM; in assay [3], more than 100 µM; in assay [4], 0.0602 µM; in [5], more than 100 µM; in assay [6], 3.12 µM. The TGI is more than 100 µM in assay [8], more than 100 µM in [9] and 0.0667 µM in assay [10]. Moreover, the GI50 in assay [2], in assay [3], in assay [5], in assay [7], in assay [8] and in assay [9] was less than 0.01 µM in each case.
`O=C(/C=C\c1ccc([N+](=O)[O-])cc1)c1ccccc(=O)c1O`: the TGI in [1] was 4.5 µM; in [2], 2.86 µM; in assay [3], more than 100 µM; in [4], 6.63 µM; in [5], more than 21.6 µM; in [6] it was 16.8 µM. Moreover, the TGI turned out to be 0.967 µM in [7], 4.05 µM in [8], 6.5 µM in assay [9] and 3.85 µM in assay [10].
As for `COc1cc(/C=N/Nc2ncnc3c2cnn3-c2ccccc2)ccc1O`, the GI50 is more than 25 µM in assay [1]; 10.3 µM in [2]; 11.6 µM in assay [3]; 2.27 µM in [4]; 11.1 µM in assay [5]; more than 25 µM in assay [6]. Also, the GI50 in assay [7] is more than 14.6 µM; in assay [8], more than 16.2 µM; in assay [9], more than 21.4 µM; in assay [10] it was 8.18 µM. The TGI was more than 25 µM in [1]; more than 25 µM in assay [2]; more than 25 µM in assay [3]; more than 17.3 µM in assay [4]; more than 25 µM in [5]; more than 25 µM in assay [6]. For the same compound, the TGI in assay [7] is more than 25 µM; in [8], more than 25 µM; in assay [9] it was more than 25 µM; in [10], more than 24.1 µM.
Take `Cc1cc2c(cc1Cl)S/C(=C/C(=O)O)C(Nc1ccc3ncsc3c1)=NS2(=O)=O`: the GI50 in assay [1] was 1.68 µM; in [2], 22.4 µM; in assay [3], 28.6 µM; in assay [4] it was 13 µM; in [5], 16.3 µM; in assay [6], more than 34.3 µM. Besides, the GI50 is more than 26.7 µM in assay [7], 8.57 µM in assay [8], 12.7 µM in [9] and 19.4 µM in assay [10]. For the same compound, the TGI in [1] is 19.3 µM; in assay [2], 62.9 µM; in assay [3], more than 63.9 µM; in assay [4], more than 67.6 µM; in assay [5], more than 56 µM; in assay [6], more than 56.2 µM. Besides, the TGI in assay [7] is more than 33.9 µM; in [8] it was 22.1 µM; in assay [9], more than 38.1 µM; in assay [10], more than 100 µM.
